Where two headings read alike, the source gives them in different places.
Experiment: Pharmacokinetic studies in human, Compound I in plasma by LC/MS/MS
Format: in vivo
Conditions: for Cmax / Tmax / AUC(0-inf) / half-life / Vd / clearance: human, plasma
Description: Pharmacokinetic studies and dose escalation studies were conducted in adult patients with metastatic, recurrent, locally, advanced, or unresectable solid malignancy (patients with histologically and/or cytologically confirmed solid malignancy), who received prior anti-cancer treatment(s) until disease progression, at 10 different dose levels of Compound I. Groups 1-7 were administered intravenously on days 1 and 8 of a 4-week cycle at 50, 100, 150, 200, 250, 325, and 475 mg/m^2 (lyophilized formulation), respectively. Groups 8-10 were administered intravenously on days 1,8, and 15 of a 4-week cycle at 325, 475, and 650 mg/m^2 (lyophilized formulation), respectively. Each patient received each dose over 1 hour by IV infusion on days described above.
They lyophilized formulation was reconstituted with 5% glucose in sterile water, or similar biologically acceptable fluid, for IV infusion.
For patients in Groups 1-7, blood samples were typically collected at Day 1 at pre-infusion (t=−1 h), during infusion at about 30 minutes (t=−0.5 h), immediately post infusion (t=0 h), 30 min post-infusion, 1 h post-infusion, 2 h post-infusion, 4 h post-infusion, and 6 h post-infusion, as well as at about 24 h post-infusion, 48 h post-infusion, and 72 h post-infusion. On Day 8, blood samples were typically collected at pre-infusion (t=−1 h), during infusion at about 30 minutes (t=−0.5 h), immediately post infusion (t=0 h), 30 min post-infusion, 1 h post-infusion, 2 h post-infusion, 4 h post-infusion, and 6 h post-infusion, as well as at about 24 h post-infusion, and 168 h post-infusion (Day 15).
For patients in Groups 8-10, blood samples were typically collected at Day 1 at pre-infusion (t=−1 h), during infusion at about 30 minutes (t=−0.5 h), immediately post infusion (t=0 h), 30 min post-infusion, 1 h post-infusion, 2 h post-infusion, 4 h post-infusion, and 6 h post-infusion, as well as at about 24 h post-infusion, 48 h post-infusion, and 72 h post-infusion. On Day 8, blood samples were typically collected at pre-infusion (t=−1 h). On Day 15, blood samples were typically collected at pre-infusion (t=−1 h), during infusion at about 30 minutes (t=−0.5 h), immediately post infusion (t=0 h), 30 min post-infusion, 1 h post-infusion, 2 h post-infusion, 4 h post-infusion, and 6 h post-infusion, as well as at about 24 h post-infusion, and 168 h post-infusion (Day 22).
Levels of Compound I in patient's plasma were analyzed by liquid chromatography tandem mass spectrometry (LC/MS/MS) assay. Experimental procedures of the validated methods are summarized below. The pharmacokinetic parameters after first dose and second dose for Groups 1-7 and after first dose and third dose for Groups 8-10 are shown in Tables 2A-2J. In Tables 2A-2J: SD=standard deviation; Cmax=maximum observed concentration; D=dose; Tmax=time to maximum observed concentration; T1/2=elimination half-life; Vd=volume of distribution; CL=drug clearance; and AUC∞=area under the concentration-time curve from time zero to infinity (total exposure).
The concentrations of Compound I in human plasma samples collected from subjects of as discussed above. Compound I concentrations in plasma samples were measured based on 9 levels of calibration standards from 5.00 to 5000 ng/mL, and 3 levels of QC at 15.0 ng/mL (low), 2500 ng/mL (mid), and 4000 ng/mL (high).
Two reference standard master stock solutions of Compound I were prepared by dissolving the Compound 1 reference standard with 50:50:0.1 ACN:diH2O:FA (v/v/v) and sonicating for 7 minutes (diH2O=deionized water). The resulting solutions were further diluted with 50:50:0.1 ACN:diH2O:FA (v/v/v) into a series of working stock solutions (WSS) for spiking of Compound I calibration standards and QC samples. The master stock solutions were prepared fresh on the day of assay, or stored at nominal 2° C. to 8° C. for later use. Master stock solutions were used within the stability timeframe. […]

[1] = Group 1, 50 mg/m^2 IV, Day 1, mean, n = 4
[2] = Group 1, 50 mg/m^2 IV, Day 8, mean, n = 3
[3] = Group 2, 100 mg/m^2 IV, Day 8, mean, n = 3
[4] = Group 3, 150 mg/m^2 IV, Day 1, mean, n = 4
[5] = Group 3, 150 mg/m^2 IV, Day 8, mean, n = 4
[6] = Group 4, 200 mg/m^2 IV, Day 1, mean, n = 4
[7] = Group 4, 200 mg/m^2 IV, Day 8, mean, n = 4
[8] = Group 5, 250 mg/m^2 IV, Day 1, mean, n = 3
[9] = Group 5, 250 mg/m^2 IV, Day 8, mean, n = 3
[10] = Group 6, 325 mg/m^2 IV, Day 1, mean, n = 3
[11] = Group 6, 325 mg/m^2 IV, Day 8, mean, n = 3
[12] = Group 7, 475 mg/m^2 IV, Day 1, mean, n = 3
[13] = Group 7, 475 mg/m^2 IV, Day 8, mean, n = 3
[14] = Group 9, 475 mg/m^2 IV, Day 1, mean, n = 5
[15] = Group 10, 650 mg/m^2 IV, Day 1, mean, n = 5
[16] = Group 10, 650 mg/m^2 IV, Day 15, mean, n = 5
[17] = intravenous, Groups 8-10, Day 1, range of group means
[18] = iv, 50 mg/m2, Group 1, 50 mg/m^2 IV, Day 1, mean, n = 4
[19] = iv, 50 mg/m2, Group 1, 50 mg/m^2 IV, Day 8, mean, n = 3
[20] = iv, 100 mg/m2, Group 2, 100 mg/m^2 IV, Day 1, mean, n = 4
[21] = iv, 100 mg/m2, Group 2, 100 mg/m^2 IV, Day 8, mean, n = 3
[22] = iv, 150 mg/m2, Group 3, 150 mg/m^2 IV, Day 1, mean, n = 4

AUC∞/D [1]: 170 ng·h/mL/mg | Cmax/D [1]: 8.14 ng/mL/mg | AUC∞/D [2]: 94.9 ng·h/mL/mg | Cmax/D [2]: 7.23 ng/mL/mg | AUC∞/D (Group 2, 100 mg/m^2 IV, Day 1, mean, n = 3): 38.3 ng·h/mL/mg | Cmax/D (Group 2, 100 mg/m^2 IV, Day 1, mean, n = 4): 5.94 ng/mL/mg | AUC∞/D [3]: 47.4 ng·h/mL/mg | Cmax/D [3]: 3.97 ng/mL/mg | AUC∞/D [4]: 84.5 ng·h/mL/mg | Cmax/D [4]: 5.43 ng/mL/mg | AUC∞/D [5]: 91.1 ng·h/mL/mg | Cmax/D [5]: 5.49 ng/mL/mg | AUC∞/D [6]: 42.7 ng·h/mL/mg | Cmax/D [6]: 26.9 ng/mL/mg | AUC∞/D [7]: 44.5 ng·h/mL/mg | Cmax/D [7]: 3.27 ng/mL/mg | AUC∞/D [8]: 48.0 ng·h/mL/mg | Cmax/D [8]: 3.15 ng/mL/mg | AUC∞/D [9]: 64.6 ng·h/mL/mg | Cmax/D [9]: 1.87 ng/mL/mg | AUC∞/D [10]: 46.9 ng·h/mL/mg | Cmax/D [10]: 2.14 ng/mL/mg | AUC∞/D [11]: 57.8 ng·h/mL/mg | Cmax/D [11]: 2.09 ng/mL/mg | AUC∞/D [12]: 44.0 ng·h/mL/mg | Cmax/D [12]: 2.48 ng/mL/mg | AUC∞/D [13]: 44.1 ng·h/mL/mg | Cmax/D [13]: 2.15 ng/mL/mg | AUC∞/D (Group 8, 325 mg/m^2 IV, Day 1, mean, n = 3): 52.1 ng·h/mL/mg | Cmax/D (Group 8, 325 mg/m^2 IV, Day 1, mean, n = 4): 2.04 ng/mL/mg | Cmax/D (Group 8, 325 mg/m^2 IV, Day 15, mean, n = 4): 35.5 ng/mL/mg | AUC∞/D [14]: 42.7 ng·h/mL/mg | Cmax/D [14]: 2.01 ng/mL/mg | AUC∞/D (Group 9, 475 mg/m^2 IV, Day 15, mean, n = 4): 39.8 ng·h/mL/mg | Cmax/D (Group 9, 475 mg/m^2 IV, Day 15, mean, n = 5): 3.34 ng/mL/mg | AUC∞/D [15]: 46.5 ng·h/mL/mg | Cmax/D [15]: 2.61 ng/mL/mg | AUC∞/D [16]: 48.6 ng·h/mL/mg | Cmax/D [16]: 3.44 ng/mL/mg | Cmax (intravenous, 200 mg/m2, Groups 1-7, Day 1, range of group means (200 mg/m^2 outlier apart)): 728 to 1940 ng/mL | Cmax (intravenous, 325 mg/m2, Groups 8-10, Day 15, range of group means (325 mg/m^2 outlier apart)): 2870 to 4170 ng/mL | Tmax (intravenous, Groups 1-7, 50 to 475 mg/m^2, Day 1, range of group means): 0.508 to 1.19 h | AUC(0-inf) (intravenous, Groups 1-7, Day 1, range of group means, read-out: Total exposures (AUC∞)): 6650 to 36200 ng·h/mL | half-life (intravenous, Groups 1-7, Day 1 dose, range of group means, read-out: Apparent elimination half-lives): 37.3 to 81.8 h | Cmax (intravenous, Groups 1-7, Day 8, range of group means): 642 to 1710 ng/mL | AUC(0-inf) (intravenous, Groups 1-7, Day 8, range of group means, read-out: Total exposures (AUC∞)): 9120 to 35400 ng·h/mL | half-life (intravenous, Groups 1-7, Day 8 dose, range of group means, read-out: Apparent elimination half-lives): 42.6 to 96.9 h | Cmax [17]: 1140 to 3080 ng/mL | Tmax [17]: 0.767 to 1.18 h | AUC(0-inf) (intravenous, Groups 8-10, Day 1, range of group means, read-out: Total exposures (AUC∞)): 29100 to 57500 ng·h/mL | half-life (intravenous, Groups 8-10, Day 1 dose, range of group means, read-out: Apparent elimination half-lives): 61.5 to 122 h | AUC(0-inf) (intravenous, Groups 8-10, Day 15, range of group means, read-out: Total exposures (AUC∞)): 32500 to 62200 ng·h/mL | half-life (intravenous, Groups 8-10, Day 15 dose, range of group means, read-out: Apparent elimination half-lives): 59 to 93.6 h | Cmax [18]: 728 ng/mL | Tmax [18]: 0.758 h | Vd [18]: 866 L | clearance [18]: 265 mL/min | AUC(0-inf) (iv, 50 mg/m2, Group 1, 50 mg/m^2 IV, Day 1, mean, n = 4, read-out: AUC∞): 16300 ng·h/mL | half-life (iv, 50 mg/m2, Group 1, 50 mg/m^2 IV, Day 1, mean, n = 4, read-out: T1/2 (converted)): 60.1 h | Cmax [19]: 642 ng/mL | Tmax [19]: 1.01 h | Vd [19]: 752 L | clearance [19]: 275 mL/min | AUC(0-inf) (iv, 50 mg/m2, Group 1, 50 mg/m^2 IV, Day 8, mean, n = 3, read-out: AUC∞): 9120 ng·h/mL | half-life (iv, 50 mg/m2, Group 1, 50 mg/m^2 IV, Day 8, mean, n = 3, read-out: T1/2 (converted)): 42.6 h | Vd (iv, 100 mg/m2, Group 2, 100 mg/m^2 IV, Day 1, mean, n = 3): 1400 L | AUC(0-inf) (iv, 100 mg/m2, Group 2, 100 mg/m^2 IV, Day 1, mean, n = 3, read-out: AUC∞): 6650 ng·h/mL | half-life (iv, 100 mg/m2, Group 2, 100 mg/m^2 IV, Day 1, mean, n = 3, read-out: T1/2 (converted)): 37.3 h | Cmax [20]: 1090 ng/mL | Tmax [20]: 0.508 h | Cmax [21]: 804 ng/mL | Tmax [21]: 0.7 h | Vd [21]: 1850 L | AUC(0-inf) (iv, 100 mg/m2, Group 2, 100 mg/m^2 IV, Day 8, mean, n = 3, read-out: AUC∞): 9160 ng·h/mL | half-life (iv, 100 mg/m2, Group 2, 100 mg/m^2 IV, Day 8, mean, n = 3, read-out: T1/2 (converted)): 60.4 h | Cmax [22]: 1230 ng/mL | Tmax [22]: 0.65 h | Vd [22]: 900 L | clearance [22]: 252 mL/min | AUC(0-inf) (iv, 150 mg/m2, Group 3, 150 mg/m^2 IV, Day 1, mean, n = 4, read-out: AUC∞): 20000 ng·h/mL | half-life (iv, 150 mg/m2, Group 3, 150 mg/m^2 IV, Day 1, mean, n = 4, read-out: T1/2 (converted)): 48.1 h | Cmax (iv, 150 mg/m2, Group 3, 150 mg/m^2 IV, Day 8, mean, n = 4): 1270 ng/mL
SMILES: Cc1cnc(CNC(=O)c2c(=O)c3ccc(N4CCCN(C)CC4)nc3n3c2sc2ccccc23)cn1 [Compound I, 2-(4-Methyl-[1,4]diazepan-1-yl)-5-oxo-5H-7-thia-1,11b-diaza-benzo[c]fluorene-6-carboxylic acid (5-methyl-pyrazin-2-ylmethyl)-amide]
Plasma kinetic behavior (all dose levels, Groups 1-10): semi-logarithmic biphasic kinetic behavior

From patent publication US20210046071A1, “TETRACYCLIC COMPOUNDS AND THEIR SALTS, COMPOSITIONS, AND METHODS FOR THEIR USE” (Senhwa Biosciences, Inc., priority 2019, published 2021)
